Read-outs that look alike come from different tables or passages of the source.
How the values were obtained:
[1] = Embryo-foetal development study in rats; format: in vivo, rat; settings: female, Wistar (Han), rat, in vivo
Experimental: (§1) The objective of the study was to determine the effects of CBD-C4 on the embryonic and foetal development of the rat. The toxicokinetic profile of CBD-C4 was also assessed.
(§2) Three groups of 20 time-mated female Wistar (Han) rats were given CBD-C4 once daily by the oral (gavage) route from Day 6 to Day 17 of gestation at dose levels of 1, 10 or 100 mg/kg/day (at a constant dose volume of 5 mL/kg), to cover the period of organogenesis.
(§3) A similar group of rats was given the vehicle, sesame oil, following the same regimen to act as controls.
(§4) Blood samples were taken for toxicokinetic evaluation at pre-dose, 1, 2, 4, 6 and 24 hours after dosing on Days 6 and 17 of gestation. Clinical observations, body weight and food consumption were recorded. On Day 21 of gestation (GD 21) the females were euthanised, and the progress and outcome of pregnancy was evaluated.
(§5) Foetuses were evaluated for external, visceral and skeletal malformations and […]

[2] = test system: pregnant Wistar (Han) rats; assay: Embryo-foetal development study in rats; format: in vivo, rat
Experimental: as §1, §2, §3, §4, §5

[3] = test system: mouse model of seizure; assay: maximal electroshock (MES) test in the mouse; format: in vivo; settings: for decrease in the number of mice showing tonic convulsions, as compared with vehicle controls: p<0.001
Experimental: Mice were administered MES (50 mA, rectangular current: 0.6 ms pulse width, 0.4 s duration, 50 Hz) via corneal electrodes connected to a constant current shock generator (Ugo Basile: type 7801). The number of tonic convulsions was recorded.
Twelve mice were studied per group. The test was performed blind.
The test substance, CBD-C4, was evaluated at 5 doses (3, 10, 30, 100 and 200 mg/kg), administered i.p. 60 minutes before MES, and compared with a vehicle control group (administered under the same experimental conditions).
Diazepam (2 mg/kg i.p.), administered i.p. 30 minutes before MES, was used as a reference substance and was compared with a vehicle group (administered i.p. 60 minutes before MES).
Data was analysed by comparing treated groups with the appropriate vehicle control using Fisher's Exact Probability tests.

[4] = 1, 10 or 100 mg/kg/day oral, GD 6-17

C=C(C)[C@@H]1CCC(C)=C[C@H]1c1c(O)cc(CCCC)cc1O [CBD-C4, (1′R,2′R)-4-butyl-5′-methyl-2′-(prop-1-en-2-yl)-1′,2′,3′,4′-tetrahydro-[1,1′-biphenyl]-2,6-diol]
NOAEL ([1]; oral, embryo-foetal development study, sesame oil formulation (summary), read-out: NOAEL): 100 mg/kg | NOAEL ([1]; oral gavage GD 6-17, read-out: NOAEL for maternal and embryo-foetal toxicity): 100 mg/kg/day | mean body weight of females ([2]; 1 mg/kg/day): unaffected | foetal malformations ([2]; 10 mg/kg/day, different organ systems, no developmental pattern): two foetuses with malformations | mean food consumption ([2]; 100 mg/kg/day, two days after the start of dosing, compared with controls): Lower mean food consumption | CBD-C4-related foetal malformations ([2]; 1, 10 or 100 mg/kg/day): no CBD-C4-related foetal malformations | mean foetal weight and percentage of male foetuses ([2]; 1, 10 or 100 mg/kg/day): no effect | pregnancy parameters (number of implantations, pre- or post-implantation losses, number of live foetuses) ([2]; 1, 10 or 100 mg/kg/day): no effect | mortality [2, 4]: no mortality | treatment-related clinical observations [2, 4]: no treatment-related clinical observations | mean food consumption ([2]; 1 or 10 mg/kg/day): unaffected | mean body weight of females ([2]; 10 or 100 mg/kg/day, one day after the start of dosing on Day 6 of gestation): Dose-related mean body weight loss | foetal variations ([2]; any of the groups maternally dosed): no noteworthy foetal variations | tolerability ([2]; dose levels up to 100 mg/kg/day, pregnant rats): well tolerated | foetal malformations ([2]; maternally dosed at 1 or 100 mg/kg/day): no malformations | decrease in the number of mice showing tonic convulsions, as compared with vehicle controls ([3]; 100 mg/kg i.p. 60 minutes before MES): −100% | decrease in the number of mice showing tonic convulsions, as compared with vehicle controls ([3]; 200 mg/kg i.p. 60 minutes before MES): −100% | effect on number of mice showing tonic convulsions ([3]; lower doses 3, 10 and 30 mg/kg i.p. 60 minutes before MES): No effects

Reference: patent publication US20220016048A1, “CANNABIDIOL-TYPE CANNABINOID COMPOUND” (GW Research Limited, priority 2018, published 2022)
